Key:
Dactylogyrus vastator = assay: Bath treatment of Dactylogyrus infected goldfish; assay type: in vivo, goldfish (Carassius auratus); settings: bath 1.5 mg/L, 48 hours
Method: (R)-praziquantel Form B was tested for use in treating fish parasites. Specifically, the effect of bath treatment of monogenean Dactylogyrus infected goldfish (Carassius auratus) was investigated. […] Two days after treatment, the number of attached parasites in whole gills of each fish was counted. Reduction rate=(average survival of worms in the blank control group−average survival of worms in the administration group)/average survival of worms in the blank control group×100%.

Neobenedenia melleni = assay: Antiparasitic activity of medicated feed in infected yellow croaker; assay type: in vivo, large yellow croaker (Larimichthys crocea); settings: for Infectivity: Day 3
Excerpt: The purpose of this experiment was to evaluate palatability and efficacy of (R)-praziquantel Form B (R-PZQ) against Monogenean trematode infection (Neobenedenia melleni) in large yellow croaker (Larimichthys crocea). Praziquantel (PZQ) was used as a positive control.
All experimental yellow croakers (about 50-75 g BW/fish) were infected with Neobenedenia melleni, and the average infection intensity was 100-120 parasites/fish.
Fish were fed 2 times a day (morning and afternoon) at up to 4% BW per day. The medicated granular feed was prepared as descripted under section “LIQUID COMPOSITIONS AND SOLID FORMULATIONS CONTAINING (R)-PRAZIQUANTEL FORM B FOR AQUACULTURE AND FISH”. Briefly, the powders of (R)-praziquantel Form B ([…]) or praziquantel (PZQ) were mixed with 4% (v/v) squid oil. The resulting squid oil was subsequently top-dressed onto commercial feed granules. Control feed was prepared by top-dressing with 4% squid oil onto the feed granules without containing the compounds.
During treatment, amount and time to consume the medicated (or control) feed by the fishes in each group were observed and scored for palatability as poor (+) to excellent (+++++). Two days after dosing (Day 3), each fish was soaked in water individually and the number of parasites was recorded separately.

[1] = Long-term stability of (R)-praziquantel Form B API; assay type: physicochemical; settings: for Appearance / Assay(Anhydrous basis) / Chiral Purity / Purity / Related Substances, largest single impurity (RRT = 0.60) / Related Substances, total impurities / XRPD Characterization / Water Content: 25° C., 60% relative humidity; for Water Content: Karl Fischer
Method: Accurately weigh about 0.1-0.5 g of sample of Form B and transfer it to KF titrator container (aldehyde ketone Volumetric method), measure the samples according to USP<921>. The active pharmaceutical ingredient (API) of Form B was stored for 18 months under different storage conditions: 25° C. and 60% relative humidity, 30° C. and 65% relative humidity, and 40° C. and 75% relative humidity, in a sealed and open condition. […] In some embodiments, under various storage conditions the anhydrous API provided herein can be stable and water content controlled under 0.5% and monitored by KF for at least, or at least about, 3 months, 6 months, 9 months, 12 months, 18 months, 24 months and 36 months. For example, under storage conditions of 25° C. and 60% relative humidity, the tablets and API provided herein can be stable for at least, or at least about, 3 months, 6 months, 9 months, 12 months and 18 months.

[2] = Accelerated solid state stability of anhydrate (Form B) and hemihydrate (R)-praziquantel, open and closed condition; assay type: physicochemical
Method: The Accelerated Solid State Stability of the Anhydrate (Form B) and Hemihydrate (R)-Praziquantel in an Open and Closed Condition […] The accelerated solid-state stability of the anhydrate and hemihydrate (R)-praziquantel was determined by storing approximately 1.0 g of the material in a glass dish at a) the anhydrate at 45° C./75% (RH), closed, for 3 months. and b) 45° C./75% Relative Humidity (RH), open exposure condition, for 3 months. The material was assayed by KF, TGA and HPLC for final content and degradation products.

[3] = Physicochemical characterization of Form B (hygroscopicity)
[4] = highest concentration of 10 mg/L
Method: Goldfish were acclimatized to 22° C. water (pH 7˜7.5, dissolved oxygen>5 mL/L) and were challenged with Dactylogyrus vastator. When infection rate and infection intensity reached 100% and over 10 parasite/whole gills of each fish within about 10 days, the fish were then treated with various concentrations of the (R)-praziquantel Form B or praziquantel for 48 hours by bath. Infected fish […] were used as a control group. 20 infected fish were placed per concentration for each treatment.

[5] = at the same dose level; cited from earlier work
[6] = cited from earlier work
isolated rat atria = settings: cited from earlier work
[7] = rabbit, in vivo; cited from earlier work
[8] = medicated feed 75 mg/kg × 2 days
[9] = Closed condition, 45° C./75% RH, 3 months
[10] = Open, 45° C., RH75%, T3 (3 months)
[11] = Opened condition, 45° C./75% RH, 3 months
[12] = Sealed, 45° C., RH75%, T3 (3 months)
[13] = medicated feed 37 mg/kg × 2 days

## O=C(C1CCCCC1)N1CC(=O)N2CCc3ccccc3C2C1 (racemic) [Praziquantel, reference compound]
Dactylogyrus vastator
  Infection rate: 100%
  Worm reduction: 45%
Neobenedenia melleni; [8]
  Mortality: 3%
  Infectivity: 54%

## O=C(C1CCCCC1)N1CC(=O)N2CCc3ccccc3[C@@H]2C1 [(R)-praziquantel Form B, (R)-2-(cyclohexanecarbonyl)-2,3,6,7-tetrahydro-1H-pyrazino[2,1-a] isoquinolin-4(11bH)-one]
[1]; 18 months, 25° C./60% RH, 30° C./65% RH, 40° C./75% RH, sealed and open
  Storage stability of API: good stability
[1]; 18 M
  Appearance: White solid
  Assay(Anhydrous basis): 101.00%
  Chiral Purity: 100.00%
  Purity: 99.90%
  Related Substances, largest single impurity (RRT = 0.60): RRT = 0.60: 0.03%
  Related Substances, total impurities: 0.11%
  XRPD Characterization: Conforms
  Water Content: 0.27%
[1]; Initial (0 M)
  Appearance: White solid
  Assay(Anhydrous basis): 99.80%
  Chiral Purity: 100.00%
  Purity: 99.90%
  Related Substances, largest single impurity (RRT = 0.60): RRT = 0.60: 0.04%
  Related Substances, total impurities: 0.10%
  XRPD Characterization: Conforms
  Water Content: 0.50%
[2]; [9]
  Degradation (HPLC): no significant degradation observed
  Water uptake (KF): ≤ 0.3%
[2]; Open, 45° C., RH75%, T0, listed as Anhydrate
  Water content (KF): 1.30%
[2]; Open, 45° C., RH75%, T0, listed as anhydrate
  Water content (KF): 1.3%
[2]; [10]
  Impurities by HPLC, RRT 0.6: RRT 0.6: 0.04%
[2]; Open, 45° C., RH75%, T3 (3 months), listed as Anhydrate
  Water content (KF): 2.50%
[2]; Open, 45° C., RH75%, T3 (3 months), listed as anhydrate
  Water content (KF): about 2.5%
[2]; [11]
  Degradation (HPLC): no significant degradation observed
  Impurity peaks found (HPLC): none of impurity peak found
[2]; Sealed, 45° C., RH75%, T0
  Water content (KF): 0.24%
[2]; [12]
  Impurities by HPLC, RRT 0.6: RRT 0.6: 0.04%
  Water content (KF): 0.32%
[3]
  Hygroscopicity: slightly hygroscopic
Dactylogyrus vastator
  Infection rate: 100%
  Worm reduction: 98%
[4]
  Toxic effect in the treated fish: no toxic effect
Neobenedenia melleni; [13]
  Mortality: 0%
  Infectivity: 35%
Neobenedenia melleni; [8]
  Mortality: 0%
  Infectivity: 6%
Neobenedenia melleni; oral treatment
  Antiparasitic efficacy: dose dependent and superior to PZQ

## O=C(C1CCCCC1)N1CC(=O)N2CCc3ccccc3[C@@H]2C1 [(R)-praziquantel]
[5]
  Anthelmintic efficacy: better than that of praziquantel
[6]; after oral administration (drowsiness, gastric nausea or photosensitivity rash)
  Observed side effects: relatively mild
[6]; after oral administration
  Serious adverse reactions: No serious adverse reactions
Isolated rat atria
  Cardiac toxicity: lower cardiac toxicity than (S)-praziquantel
[7]
  Cardiac toxicity: lower cardiac toxicity than (S)-praziquantel

## O=C(C1CCCCC1)N1CC(=O)N2CCc3ccccc3[C@H]2C1 [(S)-praziquantel, reference compound]
[5]
  Anthelmintic efficacy: almost no activity

## O.O=C(C1CCCCC1)N1CC(=O)N2CCc3ccccc3[C@@H]2C1.O=C(C1CCCCC1)N1CC(=O)N2CCc3ccccc3[C@@H]2C1 [Hemihydrate, reference compound]
[2]; Open, 45° C., RH75%, T0
  Water content (KF): 2.80%
[2]; [10]
  Impurities by HPLC, RRT 0.6: RRT0.6: 0.17%,
  Impurities by HPLC, RRT 0.9: RRT0.9: 0.13%
  Water content (KF): 2.50%
[2]; [11]
  Impurity peaks found (HPLC): two
  Percent total impurities: exceed 0.3%

— patent publication US20230381173A1, “METHODS AND PHARMACEUTICAL COMPOSITION FOR TREATING DISEASES” (TONGLI BIOMEDICAL CO. LTD., priority 2021, published 2023)
